PubChem BioAssay AID248 (DTP/NCI, 2004)
Where “and” joins values, the source holds several entries; their conditions need not be identical. Identical values can stand only once. Toxic doses and inconclusive results are not listed. Cut-off read from the data, not from the text of the source: active = T/C of 150% or more; inactive = T/C below 125%.

System: L1210 leukemia ip in BDF1 mice, survival T/C
Assay: NCI In Vivo Anticancer Drug Screen. Data for tumor model L1210 Leukemia (intraperitoneal) in B6D2F1 (BDF1) mice
Settings: endpoint: mean survival time, higher = longer survival
Method in brief: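 Tumor was transplanted into mice, which were then dosed with test compound or vehicle alone. Survival was recorded for each group, and the treated figure was expressed relative to the control figure.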

[1] = dose: 100.0 mg/kg/injection, schedule: Q01DX009 (ip), vehicle: saline with Tween-80
[2] = dose: 200.0 mg/kg/injection, schedule: Q01DX009 (ip), vehicle: saline with Tween-80
[3] = dose: 100.0 mg/kg/injection, schedule: Q01DX001 (ip), vehicle: saline
[4] = dose: 200.0 mg/kg/injection, schedule: Q01DX001 (ip), vehicle: saline
[5] = dose: 400.0 mg/kg/injection, schedule: Q01DX001 (ip), vehicle: saline
[6] = dose: 100.0 mg/kg/injection, schedule: Q04DX003 (ip), vehicle: Klucel (hydroxypropylcellulose) (HPC)
[7] = dose: 100.0 mg/kg/injection, schedule: Q01DX009 (ip), vehicle: saline
[8] = dose: 200.0 mg/kg/injection, schedule: Q01DX009 (ip), vehicle: saline
[9] = dose: 50.0 mg/kg/injection, schedule: Q01DX009 (ip), vehicle: saline with Tween-80
[10] = dose: 100.0 mg/kg/injection, schedule: Q04DX002 (ip), vehicle: saline
[11] = dose: 200.0 mg/kg/injection, schedule: Q04DX002 (ip), vehicle: saline
[12] = dose: 100.0 mg/kg/injection, schedule: Q04DX003 (ip), vehicle: saline with Tween-80
[13] = dose: 200.0 mg/kg/injection, schedule: Q04DX003 (ip), vehicle: saline with Tween-80

Measured: T/C

CC(=O)Cc1cc(=O)[nH]c(=O)[nH]1
inactive: [1] 95 % of control | [2] 89 % of control

Cc1ccc(S(=O)(=O)OCC2OC(n3cnc4c(NC=O)ncnc43)C(OC=O)C2OC=O)cc1 (stereo not drawn)
inactive: dose: 50.0 mg/kg/injection, schedule: Q01DX009 (ip), vehicle: gum acacia 115 % of control | dose: 100.0 mg/kg/injection, schedule: Q01DX005 (ip), vehicle: saline 105 % of control | dose: 100.0 mg/kg/injection, schedule: Q01DX009 (ip), vehicle: gum acacia 104 % of control | dose: 200.0 mg/kg/injection, schedule: Q01DX009 (ip), vehicle: gum acacia 100 % of control

COC(=O)c1ccc2c3c(ccc(C(=O)OC)c13)C=C2
inactive: [3] 102 % of control | [4] 94 % of control | [5] 95 % of control

Nc1nc(N)c(-c2ccc(Cl)c(Cl)c2)c(CCc2ccc(CNC(=O)c3cc(S(=O)(=O)F)ccc3Cl)cc2)n1
inactive: dose: 100.0 mg/kg/injection, schedule: Q01DX001 (ip), vehicle: saline with Tween-80 97 % of control | dose: 200.0 mg/kg/injection, schedule: Q01DX001 (ip), vehicle: saline with Tween-80 94 % of control | dose: 400.0 mg/kg/injection, schedule: Q01DX001 (ip), vehicle: saline with Tween-80 94 % of control

C[Si](C)Cc1cccc(F)c1
inactive: [6] 105 % of control | dose: 200.0 mg/kg/injection, schedule: Q04DX003 (ip), vehicle: Klucel (hydroxypropylcellulose) (HPC) 105 % of control | dose: 400.0 mg/kg/injection, schedule: Q04DX003 (ip), vehicle: Klucel (hydroxypropylcellulose) (HPC) 100 % of control

Cc1ccc(C(=O)N2CCCCC2)c[n+]1C
inactive: [3] 104 % of control | [4] 100 % of control | [5] 105 % of control

CC12C3CCC(C3)C1(O)C2S(=O)(=O)N1CCCCC1 (stereo not drawn)
inactive: [7] 110 % of control | [8] 104 % of control

COc1cc2c(cc1O)/C(=N/O)CCCC2
inactive: [9] 102 % of control | [1] 102 % of control | [2] 106 % of control | dose: 400.0 mg/kg/injection, schedule: Q01DX009 (ip), vehicle: saline with Tween-80 104 % of control

Cc1ccc(S(=O)(=O)OCCN(CCOS(=O)(=O)c2ccc(C)cc2)c2cccc(Cl)c2)cc1
inactive: dose: 50.0 mg/kg/injection, schedule: Q01DX001 (ip), vehicle: carboxymethylcellulose (CMC) 98 % of control | dose: 100.0 mg/kg/injection, schedule: Q01DX001 (ip), vehicle: carboxymethylcellulose (CMC) 98 % of control | dose: 200.0 mg/kg/injection, schedule: Q01DX001 (ip), vehicle: carboxymethylcellulose (CMC) 109 % of control | dose: 400.0 mg/kg/injection, schedule: Q01DX001 (ip), vehicle: carboxymethylcellulose (CMC) 114 % of control

CC(C)(C)CNC(C)(C)C
inactive: dose: 5.0 mg/kg/injection, schedule: Q01DX001 (ip), vehicle: saline 109 % of control | dose: 10.0 mg/kg/injection, schedule: Q01DX001 (ip), vehicle: saline 103 % of control | dose: 20.0 mg/kg/injection, schedule: Q01DX001 (ip), vehicle: saline 100 % of control | dose: 40.0 mg/kg/injection, schedule: Q01DX001 (ip), vehicle: saline 103 % of control | dose: 50.0 mg/kg/injection, schedule: Q04DX002 (ip), vehicle: saline 112 % of control | dose: 80.0 mg/kg/injection, schedule: Q01DX001 (ip), vehicle: saline 105 % of control | [10] 104 % of control | [11] 95 % of control

O=C(Nc1coc2ccc(Cl)cc12)C1CC1
inactive: [1] 86 % of control | [2] 99 % of control

COc1cc([N+](C)(C)C)nc(OC)n1
inactive: dose: 22.0 mg/kg/injection, schedule: Q01DX Z (ip), vehicle: saline 98 % of control | dose: 34.0 mg/kg/injection, schedule: Q01DX Z (ip), vehicle: saline 110 % of control | dose: 50.0 mg/kg/injection, schedule: Q01DX Z (ip), vehicle: saline 104 % of control

Fc1ccc(CSC(=S)Nc2ccc(Cl)c(Cl)c2)cc1
inactive: dose: 75.0 mg/kg/injection, schedule: Q04DX003 (ip), vehicle: saline with Tween-80 102 % of control | dose: 150.0 mg/kg/injection, schedule: Q04DX003 (ip), vehicle: saline with Tween-80 106 % of control

CCOC(=O)C(Cc1ccccc1[N+](=O)[O-])C(=O)OCC
inactive: [3] 103 % of control | [7] 103 % of control and 89 % of control | [10] 112 % of control and 113 % of control | dose: 100.0 mg/kg/injection, schedule: Q04DX003 (ip), vehicle: saline 94 % of control | [4] 101 % of control | [8] 93 % of control and 105 % of control | [11] 108 % of control | dose: 200.0 mg/kg/injection, schedule: Q04DX003 (ip), vehicle: saline 103 % of control | [5] 100 % of control | dose: 400.0 mg/kg/injection, schedule: Q01DX009 (ip), vehicle: saline 96 % of control and 105 % of control | dose: 400.0 mg/kg/injection, schedule: Q04DX002 (ip), vehicle: saline 102 % of control and 108 % of control | dose: 400.0 mg/kg/injection, schedule: Q04DX003 (ip), vehicle: saline 103 % of control

Cc1ccc2cccc([N+](=O)[O-])c2n1
inactive: dose: 12.5 mg/kg/injection, schedule: Q01DX009 (ip), vehicle: saline with Tween-80 93 % of control | dose: 25.0 mg/kg/injection, schedule: Q01DX009 (ip), vehicle: saline with Tween-80 93 % of control | dose: 25.0 mg/kg/injection, schedule: Q04DX003 (ip), vehicle: saline with Tween-80 101 % of control | [9] 103 % of control | dose: 50.0 mg/kg/injection, schedule: Q04DX003 (ip), vehicle: saline with Tween-80 95 % of control | [12] 105 % of control and 106 % of control | [13] 106 % of control

Brc1ccc(SSc2ccc(Br)cc2)cc1
inactive: [3] 110 % of control | [4] 95 % of control | [5] 95 % of control

N#CCC[P+](CCC#N)(CCC#N)CCCC[P+](CCC#N)(CCC#N)CCC#N
inactive: [12] 94 % of control | [13] 91 % of control | dose: 400.0 mg/kg/injection, schedule: Q04DX003 (ip), vehicle: saline with Tween-80 94 % of control

O=S(=O)(OC1CCCCC1Br)c1ccc(Br)cc1 (stereo not drawn)
inactive: [9] 98 % of control | [1] 95 % of control

Cc1cc(C)c(C2CC3CCC2C3)cc1N (stereo not drawn)
inactive: dose: 25.0 mg/kg/injection, schedule: Q04DX002 (ip), vehicle: Klucel (hydroxypropylcellulose) (HPC) 100 % of control | dose: 50.0 mg/kg/injection, schedule: Q04DX002 (ip), vehicle: Klucel (hydroxypropylcellulose) (HPC) 100 % of control | dose: 100.0 mg/kg/injection, schedule: Q04DX002 (ip), vehicle: Klucel (hydroxypropylcellulose) (HPC) 100 % of control | [6] 90 % of control | [11] 96 % of control

CC(C)CC(C)(CC(C)C)C(=O)O
inactive: [3] 100 % of control | [4] 100 % of control | [5] 102 % of control
